Laboratory results as given in paper PMC5316407, “In vivo imaging of systemic transport and elimination of xenobiotics and endogenous molecules in mice” (Archives of Toxicology, 2016).
Values joined by “and” are separate entries in the source; they are usually repeats but may differ in a detail not shown here. Equal entries are not always repeated. “Also recorded” adds a separate entry of the source.

Legend:
Type in all cases: in vivo, mouse
[1] = Intravital two-photon imaging of intestinal transport (duodenum, capillaries to lacteal)
Experimental: (§1) In vivo recordings were acquired using a custom modified inverted LSM MP7 (Zeiss, Jena, Germany) provided with a two-photon Chameleon Ultra II laser with a tuning range from 680 to 1080 nm and a maximum power of approximately 3.5 W at 800 nm. […] Images were acquired with an LD C-Apochromat 40×/1.1 water immersion objective. The temperature of the specimen was controlled with a matt coated incubation chamber (Solent Scientific, Segensworth, UK).
For in vivo imaging, 6- to 10-week-old male mice were initially anaesthetized with an intraperitoneal injection of ketamine (64 mg/kg), xylazine (7.2 mg/kg), acepromazine (1.7 mg/kg) and buprenorphine (0.08 mg/kg). […] For liver preparation, the abdominal skin was removed and a small midline incision below the sternum was made with surgical scissors. Subsequently, the falciform ligament was cautiously cut in order to dissociate the liver. […] The cover slip was put in a custom-made image platform from Plexiglas and fit into the stage of the microscope. The exposed liver was then covered with saline-soaked gauze. The temperature control of the incubation chamber was set at 36 °C. The quality of mouse preparation was verified by checking the breathing rate of the mouse and by the regular blood flow in the observed region. For the preparation of the kidney, the mouse was placed on its right side and a small incision made in the left flank region. The convex side of the left kidney was exposed via gentle pressure on the abdominal wall. In order to avoid dryness, the exposed kidney was covered with saline-moistened gauze during imaging. For intestine imaging, an incision was made on the right side of the abdominal wall. The intestine was gently pulled out using a moistened cotton-tipped applicator. To reduce peristalsis, the intestine was incubated in a 1% atropine sulfate bath for 10 min. […]
Recorded videos were quantified with the Zen software (Zeiss). Fluorescence intensity was quantified in defined regions of interest. […]

[2] = Intravital two-photon imaging of hepatic transport after tail vein injection; conditions: for Half-life: liver
Experimental: as §1
(§2) For in vivo imaging, 6- to 10-week-old male mice were initially anaesthetized with an intraperitoneal injection of ketamine (64 mg/kg), xylazine (7.2 mg/kg), acepromazine (1.7 mg/kg) and buprenorphine (0.08 mg/kg). […] For liver preparation, the abdominal skin was removed and a small midline incision below the sternum was made with surgical scissors. Subsequently, the falciform ligament was cautiously cut in order to dissociate the liver. […] The cover slip was put in a custom-made image platform from Plexiglas and fit into the stage of the microscope. The exposed liver was then covered with saline-soaked gauze. The temperature control of the incubation chamber was set at 36 °C. The quality of mouse preparation was verified by checking the breathing rate of the mouse and by the regular blood flow in the observed region. For the preparation of the kidney, the mouse was placed on its right side and a small incision made in the left flank region. The convex side of the left kidney was exposed via gentle pressure on the abdominal wall. In order to avoid dryness, the exposed kidney was covered with saline-moistened gauze during imaging. For intestine imaging, an incision was made on the right side of the abdominal wall. The intestine was gently pulled out using a moistened cotton-tipped applicator. To reduce peristalsis, the intestine was incubated in a 1% atropine sulfate bath for 10 min. Subsequently, the intestine was placed in a glass bottom microwell dishes (MatTek corporation, MA, USA) containing 0.5% atropine sulfate bath during the entire recording period. In case of recordings exceeding 1 h, the mice were kept on maintenance anesthesia via a respiratory mask using an evaporator (IAS3801, FMI GmbH, Seeheim-Jugenheim, Germany) with 1–2% isoflurane and a subcutaneous injection of 0.5 ml saline was given.
(§3) Fluorescent markers or fluorescently labeled antibodies were injected via the tail vein before surgery or during recording via lateral tail vein catheters (SAI-infusion, IL, USA). […] All injected antibodies including anti-mouse CD11b, anti-mouse F4/80, anti-mouse NK1.1 and anti-mouse Ly6G (eBioscience, CA, USA) were phycoerythrin conjugated and administered in 100 µl PBS.
(§4) Recorded videos were quantified with the Zen software (Zeiss). Fluorescence intensity was quantified in defined regions of interest.
(§5) Pharmacokinetic analyses were performed with the MoBi® Toolbox for MATLAB (version 6.0.3; Bayer Technology Services GmbH, Leverkusen, Germany). PK-Sim® and MoBi® are freely available for non-commercial academic use.

[3] = Intravital two-photon imaging of glomerular filtration and tubular transport in the kidney; conditions: for Tmax: individual renal tubule; for Half-life: kidney
Experimental: as §1, §2, §3, §4, §5

In the case of `CC(CCC(=O)NC(CCCCNC(=S)Nc1ccc(-c2c3ccc(=O)cc-3oc3cc(O)ccc23)c(C(=O)O)c1)C(=O)O)C1CCC2C3C(O)CC4CC(O)CCC4(C)C3CC(O)C12C` (stereo not shown) [CLF, cholyl-lysyl-fluorescein], the “Transfer from intestinal blood capillaries into lymphatic vessels (lacteals), blood-lacteal barrier” value ([1]; after intravenous injection) is reported as “found in traces in the lymphatic vessels; also recorded: virtually impermeable”, the “Transport from intestinal capillaries into intestinal crypt cells and secretion into the intestinal lumen” value ([1]; after intravenous injection) is reported as “No transport” and the Half-life ([1]; intestine, blood vessels) is reported as 1.45 min. For the same molecule, the “Time to maximum homogenous signal in the cytosol of the hepatocytes” value ([2]; after intravenous injection of 2.5 mg/kg) was roughly 5 min, the “Enrichment in the LSEC/space of Dissé” value ([2]; after tail vein injection) was “transient enrichment” and the Half-life ([2]; LSEC/Dissé space) was 13.46 min. The Half-life ([2]; hepatocytes, nd^a = not detectable due to transportation in vesicles) was 34.17 min, the Half-life ([2]; sinusoids, fluorescence intensity after tail vein injection (CLF 2.5 mg/kg, dextran 30 mg/kg)) was 1.9 min and 1.89 min and the “Appearance in the liver sinusoids after tail vein injection” value ([2]; time after tail vein injection) was “approximately 15 s”. For the same molecule, the Tmax ([3]; Fig. 7, Tubule: 1) was 0.38 min, the Tmax ([3]; Fig. 7, Tubule: 2) was 0.38 min and the Tmax ([3]; Fig. 7, Tubule: 3) was 0.40 min. It also gave a Tmax ([3]; Fig. 7, Tubule: 4) of 0.75 min, a Tmax ([3]; Fig. 7, Tubule: 5) of 0.45 min and a Tmax ([3]; Fig. 7, Tubule: 6) of 0.35 min. For the same molecule, the Tmax ([3]; Fig. 7, Tubule: 7) was 3.22 min, the Tmax ([3]; Fig. 7, Tubule: 8) was 2.82 min and the Tmax ([3]; Fig. 7, Tubule: 9) was 3.34 min. The Tmax ([3]; Fig. 7, Tubule: 10) was 3.34 min, the Tmax ([3]; Fig. 7, Tubule: 11) was 0.40 min and the Tmax ([3]; Fig. 7, Tubule: 12) was 0.50 min. It also gave a Tmax ([3]; Fig. 7, Tubule: 13) of 3.24 min, a Tmax ([3]; Fig. 7, Tubule: 14) of 0.37 min and a Tmax ([3]; Fig. 7, Tubule: 15) of 3.19 min. The Half-life ([3]; Bowman's space) was 2.19 min, the Half-life ([3]; glomerular capillaries) was 2.3 min and 2.33 min and the Half-life ([3]; proximal tubule) was 4.88 min. For the same molecule, the “Time to maximum (T max) fluorescence, distal tubules” value ([3]; tubular lumina, range over imaged tubules) was 2.82 to 3.34 min.
